In patent publication US20170050957A1, “4-AMINO-6-(HETEROCYCLIC)PICOLINATES AND 6-AMINO-2-(HETEROCYCLIC)PYRIMIDINE-4-CARBOXYLATES AND THEIR USE AS HERBICIDES” (Dow AgroSciences LLC, priority 2013, published 2017):
Like-named read-outs stand apart in the source and are kept apart here.

Columns and labels:
[1] = system: Key Grass and Sedge Weeds as well as Grass Crops; experiment: Post-emergent Test II herbicidal activity (Table 16); format: in vivo; conditions: post-emergence, 336 h, 14 days after application; for pest or weed control at 35 g/ha: 35 g ai/ha; for pest or weed control at 70 g/ha: 70 g ai/ha; for pest or weed control at 140 g/ha: 140 g ai/ha
Method in brief: (§1)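 Plants grown in greenhouse (~15 h photoperiod, 23-29 °C day, 22-28 °C night) to first or second true leaf stage, then sprayed post-emergence at 187 L/ha with a high rate and 1/2×, 1/4×, 1/8× and 1/16× dilutions. Injury scored visually after 14 d, 0-100% versus untreated plants.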

[2] = system: Key Broadleaf Weed and Crop Species; experiment: Post-emergent Test II herbicidal activity (Table 15); format: in vivo; conditions: post-emergence, 336 h, 14 d; for pest or weed control at 35 g/ha: 35 g ai/ha; for pest or weed control at 70 g/ha: 70 g ai/ha; for pest or weed control at 140 g/ha: 140 g ai/ha
Method in brief: as §1

[3] = Cyperus esculentus, yellow nutsedge (Cyperus esculentus), read-out: Visual Growth Reduction (%) 14 Days After Application CYPES
[4] = Echinochloa crus-galli, barnyardgrass (Echinochloa crus-galli), read-out: Visual Growth Reduction (%) 14 Days After Application ECHCG
[5] = Oryza sativa, rice (Oryza sativa), read-out: Visual Growth Reduction (%) 14 Days After Application ORYSA
[6] = Setaria faberi, giant foxtail (Setaria faberi), read-out: Visual Growth Reduction (%) 14 Days After Application SETFA
[7] = Triticum aestivum, wheat, spring (Triticum aestivum), read-out: Visual Growth Reduction (%) 14 Days After Application TRZAS
[8] = Zea mays, maize, corn (Zea mays), read-out: Visual Growth Reduction (%) 14 Days After Application ZEAMX
[9] = Abutilon theophrasti, velvetleaf (Abutilon theophrasti), read-out: Visual Growth Reduction (%) 14 Days After Application, ABUTH
[10] = Amaranthus retroflexus, redroot pigweed (Amaranthus retroflexus), read-out: Visual Growth Reduction (%) 14 Days After Application, AMARE
[11] = Brassica napus, oilseed rape, canola (Brassica napus), read-out: Visual Growth Reduction (%) 14 Days After Application, BRSNN
[12] = Chenopodium album, lambsquarters (Chenopodium album), read-out: Visual Growth Reduction (%) 14 Days After Application, CHEAL
[13] = Euphorbia heterophylla, wild poinsettia (Euphorbia heterophylla), read-out: Visual Growth Reduction (%) 14 Days After Application, EPHHL
[14] = Helianthus annuus, sunflower (Helianthus annuus), read-out: Visual Growth Reduction (%) 14 Days After Application, HELAN

melting point: 70 °C
Structure (SMILES): COC(=O)c1nc(-c2cc3sccc3cc2F)cc(N)c1Cl [Compound 3.17]
pest or weed control at 35 g/ha [1, 3]: 0 to 29%
pest or weed control at 70 g/ha [1, 3]: 0 to 29%
pest or weed control at 140 g/ha [1, 3]: 0 to 29%
pest or weed control at 35 g/ha [1, 4]: 45 to 59%
pest or weed control at 70 g/ha [1, 4]: 60 to 74%
pest or weed control at 140 g/ha [1, 4]: 95 to 100%
pest or weed control at 35 g/ha [1, 5]: 0 to 29%
pest or weed control at 70 g/ha [1, 5]: 0 to 29%
pest or weed control at 140 g/ha [1, 5]: 0 to 29%
pest or weed control at 35 g/ha [1, 6]: 0 to 29%
pest or weed control at 70 g/ha [1, 6]: 0 to 29%
pest or weed control at 140 g/ha [1, 6]: 30 to 44%
pest or weed control at 35 g/ha [1, 7]: 0 to 29%
pest or weed control at 70 g/ha [1, 7]: 0 to 29%
pest or weed control at 140 g/ha [1, 7]: 0 to 29%
pest or weed control at 35 g/ha [1, 8]: 30 to 44%
pest or weed control at 70 g/ha [1, 8]: 60 to 74%
pest or weed control at 140 g/ha [1, 8]: 75 to 84%
pest or weed control at 35 g/ha [2, 9]: 0 to 29%
pest or weed control at 70 g/ha [2, 9]: 45 to 59%
pest or weed control at 140 g/ha [2, 9]: 60 to 74%
pest or weed control at 35 g/ha [2, 10]: 75 to 84%
pest or weed control at 70 g/ha [2, 10]: 95 to 100%
pest or weed control at 140 g/ha [2, 10]: 95 to 100%
pest or weed control at 35 g/ha [2, 11]: 0 to 29%
pest or weed control at 70 g/ha [2, 11]: 0 to 29%
pest or weed control at 140 g/ha [2, 11]: 60 to 74%
pest or weed control at 35 g/ha [2, 12]: 85 to 94%
pest or weed control at 70 g/ha [2, 12]: 95 to 100%
pest or weed control at 140 g/ha [2, 12]: 95 to 100%
pest or weed control at 35 g/ha [2, 13]: 45 to 59%
pest or weed control at 70 g/ha [2, 13]: 60 to 74%
pest or weed control at 140 g/ha [2, 13]: 75 to 84%
pest or weed control at 35 g/ha [2, 14]: 0 to 29%
pest or weed control at 70 g/ha [2, 14]: 0 to 29%
pest or weed control at 140 g/ha [2, 14]: 30 to 44%
